The source of these data is patent publication US6911306B1, “TMS1 compositions and methods of use” (Emory University, priority 1999, dated 2005).

Where a SMILES comes first, the peptide text is derived from it. The star is where a group is joined. Cbz = O=C(OCc1ccccc1)*; CH2F = FC*

For one test, the system named is TMS1 CpG island. Briefly: Methylation-specific PCR of the TMS1 CpG island after demethylating agent treatment. In kind it is cell-based, human. To be noted: 0.5 μM for 3 days; ZR75-1, Hs578t and MDA MB231 cells. The procedure:
Bisulfite modification and methylation-specific PCR were performed as previously described. (Herman, J. G., et al., Proc. Natl. Acad. Sci. U.S.A. 93:9821-9826, 1996) Briefly, 2 μg genomic DNA was denatured by incubation at 37° C. in 0.2N NaOH for 10 min. then treated with 3M sodium metabisulfite and 0.5 M hydroquinone at 50° C. for 16 h. DNA was desalted using Wizard DNA Clean-Ups (Promega). Modification was completed by the addition of NaOH to a final concentration of 0.3M and DNA was recovered by ethanol precipitation. Approximately 50 ng bisulfite-modified DNA was amplified by PCR with the following reaction conditions: 67 mM Tris-HCl, pH 8.8, 16.6 mM NH4SO4, 6.7 μM EDTA, 10 mM β-mercaptoethanol, 6.7 mM MgCl2, 1 μM each primer in a 25 μl reaction. Hot start PCR was performed using an initial 5 minute incubation at 95° C. followed by the addition of 0.5 U Taq polymerase (Life Technologies) and 35 cycles of PCR (95° C., 30 s; 58° C., 30 s; 72° C., 30 s). […]
(§1) If loss of TMS1 expression is directly related to methylation of the CpG island, then expression of TMS1 should be restored following treatment with a demethylating agent. […] Methylation of the TMS1 CpG island was analyzed by methylation specific PCR and expression of TMS1 was analyzed by RT-PCR with β-actin controls. […]

For a further test, the system named is TMS1 transcript. Briefly: RT-PCR analysis of TMS1 expression after demethylating agent treatment. In kind it is cell-based, human. To be noted: 0.5 μM for 3 days; ZR75-1, Hs578t and MDA MB231 cells. The procedure:
Six μg total RNA was pretreated with DNAse I (Life Technologies) and reverse transcribed using random hexamer primers and MMLV-reverse transcriptase according to the manufacturers instructions (Life Technologies). One/30th of the reverse transcriptase reaction equivalent to 200 ng starting RNA was used directly in a PCR reaction. The PCR reaction conditions were: 67 mM Tris-HCl, pH 8.8, 16.6 mM NH4SO4, 6.7 μM EDTA, 10 mM β-mercaptoethanol, 4.7 mM MgCl2, 10% DMSO, 400 nM each primer in a 25 μl reaction. Hot start PCR was performed using an initial 5 minute incubation at 95° C. followed by the addition of 0.5 U Taq polymerase and 35 cycles of PCR (95° C., 30 s; 50-55° C., 60 s; 72° C., 60 s). Primers used for analysis of TMS1 were TGGGCCTGCAGGAGATG-3′ (SEQ ID NO:13) and 5′-ATTTGGTGGGATTGCCAG-3′ (SEQ ID NO:9) with an annealing temperature of 50° C. Primers used for the analysis for β-actin were 5′-[…]-3′ (SEQ ID NO:14) and 5′-[…]-3′ (SEQ ID NO:15) with an annealing temperature of 55° C. […]
as §1

For another test, the system named is 293 cells. Briefly: Fluorescence microscopy of TMS1 subcellular localization. In kind it is cell-based, human. The settings on record: cells expressing TMS1 in the presence of Z-VAD. The procedure: Cells were fixed in 4% formaldehyde, permeabilized in 0.2% triton X-100 in PBS and blocked with 3% BSA/0.02% triton X-100 in PBS. Coverslips were incubated with myc antibody (9E10) (Santa Cruz Biotechnology, Santa Cruz, Calif.) at a 1:500 dilution, washed 4 times in PBS/0.02% triton X-100 and incubated with a secondary FITC antibody at a 1:2000 dilution. After 3 more washes, cells were stained with Hoechst 33258 dye to visualize nuclei, washed twice in PBS and mounted on slides. Cells were viewed at 400× or 1000× using the Olympus BX60 microscope. Digital images were captured using IP Lab Spectrum v.3.1 software (Scanalytics, Inc., Fairfax, Va.).

The next test deals with pIND1 control cells. As to the kind of experiment: Growth of pIND1 control cells. In kind it is cell-based, human. The settings on record: empty-vector control cells. The procedure:
(§2) Human embryonic kidney 293 cells and EcR-293 derivatives (MTMS22 and PIND1) were cultured in DMEM (Life Technologies, Inc. Grand Island, N.Y.) supplemented with 10% fetal bovine serum. MTMS22 and PIND1 cells were maintained in the presence of 400 μg/ml zeocin and 600 μg/ml G418. Transfections of 293 cells were carried out in 24-well dishes with 1×10^5 cells and 0.5 μg total DNA per well using the calcium phosphate method. As a transfection marker, a βgal expression vector (β-gal CMV) was included at a 1:4 ratio with the indicated cDNA constructs. In co-transfections with DN-caspase-8 or DN-caspase-9, 0.2 μg of pcDNA-TMS1 was transfected with […] of pcDNA3.1 or DN-caspase-8 or -9 along with 0.1 μg of β-gal CMV as a transfection control.
An ecdysone-regulated expression system was used to create a 293 cell line that inducibly expresses TMS1. […] In addition, a clonal population of cells stably transfected with the empty expression vector was isolated as a control (PIND1). Upon addition of pon A to the MTMS22 cells, mycTMS1 was detectable by western blotting as early as 6 hours after treatment and continued to accumulate in the cells over 48 hours (FIG. 6A). […] By 96 hours, pon A-treated cells were declining in number, confirming cell death. As a biochemical marker for apoptosis, MTMS22 cells were examined for DNA fragmentation in the presence or absence of TMS1 expression. […]

Test [1] deals with MTMS22 cells. As to the kind of experiment: DNA fragmentation in MTMS22 cells. In kind it is cell-based, human. The procedure:
Where indicated, MTMS22 cells were treated with 5 μM pon A (Invitrogen) or 40 μM Z-VAD-fmk (Enzyme System Products, Livermore, Calif.). DNA was collected from 2×10^6 cells as previously described. (Burow, M. E., et al. Cancer Research. 58: 4940-4946, 1998) 5 μg of DNA from each sample was visualized by separation on a 2% agarose gel containing ethidium bromide.

Test [2] deals with MTMS22 cells. Briefly: MTMS22 cell proliferation with ecdysone-inducible TMS1 expression. The test is classed as cell-based, human. On the procedure: The Ecdysone-Inducible Mammalian Expression System (Invitrogen, Carlsbad, Calif.) was used to create clones of 293 cells that inducibly express mycTMS1. The mycTMS1 cDNA was cloned into the HindIII/XhoI sites of the pIND expression vector (pIND-mycTMS1). EcR-293 cells (Invitrogen, Carlsbad, Calif.) containing the pVgRXR vector were transfected with pIND-mycTMS1 or pIND using Lipofectamine Reagent (Life Technologies, Grand Island, N.Y.). Cells were maintained in selection medium containing 600 μg/ml G418 for 3 weeks to isolate stably transfected colonies. Clonal populations transfected with pIND-mycTMS1 were then tested for inducible expression by western blot analysis after addition of 5 μM pon A.
Human embryonic kidney 293 cells and EcR-293 derivatives (MTMS22 and PIND1) were cultured in DMEM (Life Technologies, Inc. Grand Island, N.Y.) supplemented with 10% fetal bovine serum. MTMS22 and PIND1 cells were maintained in the presence of 400 μg/ml zeocin and 600 μg/ml G418. Transfections of 293 cells were carried out in 24-well dishes with 1×10^5 cells and 0.5 μg total DNA per well using the calcium phosphate method. As a transfection marker, a βgal expression vector (β-gal CMV) was included at a 1:4 ratio with the indicated cDNA constructs. […]

In another test the test system is Hs578t cells. Briefly: Colony formation assay. In kind it is cell-based, human. The settings on record: stable expression, 14 days G418 selection, relative to vector control. The procedure:
Breast cancer cells, including Hs57 8t, (3×10^5) were seeded into six well dishes and transfected with 1 μg pcDNA3.1 or the TMS1 expression constructs using 5 μl Lipofectamine reagent (Life Technologies). Twenty-four hours after transfection, cells were diluted 1:100-1:500 and seeded into 100 mm dishes in medium containing 400 μg/ml G418. After 14 days of selection, stable G418-resistant colonies were fixed and stained with 50% methanol, 0.25% crystal violet, and counted. The total number of colonies recovered per transfection cells was extrapolated from counting at least 300 G418^r colonies per experiment. The number of colonies recovered from cells transfected with pcDNA3.1 in each experiment was considered to be 100%. Three independent transfection experiments were performed.
Given the proapoptotic function of TMS1, the consequences of TMS1 silencing were determined by re-introducing TMS1 into breast cancer cells lacking endogenous TMS1 expression. Colony forming ability of TMS1 negative breast cancer cells stably transfected with TMS1 expression constructs was analyzed in the following manner. Hs578t cells were transfected with the pcDNA3.1 vector or the indicated TMS1 expression construct. Twenty-four hours after transfection, cells were plated at limiting dilution in G418 selection medium. […]

The test system of another test is NF-κB. Briefly: CAT assay for NF-κB activation. In kind it is cell-based, human. To be noted: 293 cells, NF-κB CAT reporter, increasing amounts of TMS1. The procedure: 293 cells plated at 60% confluence in 6 well dishes were transfected with 0.2 μg of the NF-κB CAT reporter construct (pJECAT2.6) and increasing amounts of pcDNA-mycTMS1 by the calcium phosphate method. 0.2 μg of β-gal CMV was included as a transfection control, and the total amount of DNA transfected was kept constant at 2 μg with pcDNA3.1. Cell lysates were collected 36 h after transfection in β-gal lysis buffer (Promega, Madison, Wis.) and assayed for β-gal activity using the β-Galactosidase Enzyme Assay System (Promega, Madison, Wis.) per manufacturer's instructions. CAT assays were performed basically as described. (Ausubel, F. M., et al. Curr. Prot. Mol. Biol., Vol. 2, pp. 9.7.5-9.7.6: John Wiley & Sons, Inc., 1997) In brief, cell lysates were incubated with [^14C]chloramphenicol and n-butyryl CoA. [^14C]-labeled acetylated chloramphenicol was then separated from the nonacetylated form by organic phase extraction, and radioactive counts were determined using a scintillation counter.

The subject of test [3] is 293 human embryonic kidney cells. As to the kind of experiment: Morphological apoptosis assay in transiently transfected 293 cells. In kind it is cell-based. To be noted: 48 h; for apoptosis on ectopic expression: transient transfection of 293 cells. The procedure: 293 human embryonic kidney cells were plated on glass coverslips in 24 well dishes at 1×10^5 cells per well, and were transfected with 0.4 μg of pcDNA3.1 or the TMS1 expression constructs plus 0.1 μg β-galactosidase expression vector (pCMVβgal, Clonetech) using the calcium phosphate precipitation method. Where indicated, 40 μM zVADfmk (Enzyme System Product, Livermore, Calif.) was included during the recovery period. Forty-eight hours after transfection, coverslips were fixed in 4% paraformaldehyde and stained for β-galactosidase activity, using X-gal, and for nuclear morphology, using Hoecsht […] dye. Cells were visualized by phase contrast microscopy. At least 200 β-galactosidase positive cells from randomly selected fields were counted from each transfection. Apoptotic cells were distinguished based on morphologic features typical of adherent cells undergoing apoptosis, including becoming condensed, rounded and detached from the growth surface as described. (McCarthy, J. V. et al., J.Biol.Chem. 273:16968-16975, 1998). Each transfection experiment was repeated three times.
as §2
48 h after transfection, 293 cells were fixed on coverslips and stained for β-gal activity. Nuclei were stained using Hoechst 33258 dye (Sigma, St. Louis, Mo.). […]

Where [4] appears, read: MTMS22 cells with pon A, 40 μM Z-VAD.

As to `Nc1ncn([C@H]2C[C@H](O)[C@@H](CO)O2)c(=O)n1` [5-aza-2′-deoxycytidine], the “methylation of the TMS1 CpG island” value in the test with TMS1 CpG island is “partial demethylation”. For the same compound, the “expression of TMS1 transcript” value in the test on TMS1 transcript is listed as “re-expression-of TMS1 transcript”.
On to `COC(=O)C[C@H](NC(=O)[C@H](C)NC(=O)[C@@H](NC(=O)OCc1ccccc1)C(C)C)C(=O)CF` [Z-VAD, Z-VAD-fmk] (Cbz-Val-Ala-Asp(OMe)-CH2F), for which the “effect on formation of TMS1-containing spherical aggregates” value with 293 cells is “no effect”. The “effect on growth of pIND1 control cells” value in the test on pIND1 control cells is “Neither pon A or Z-VAD had any effect”. Further, the “effect on TMS1-induced DNA fragmentation” value in the test on MTMS22 cells [1] (setting [4]) is “blocked”. Besides, in the test with MTMS22 cells [2] (setting [4]), the “effect on TMS1-induced cell death” value is given as “blocked”.
Regarding `CC(C)CC[C@@H](O)[C@](C)(O)[C@H]1CC[C@@]2(O)C3=CC(=O)[C@@H]4C[C@@H](O)[C@@H](O)C[C@]4(C)[C@H]3CC[C@]12C` [pon A], the “effect on growth of pIND1 control cells” value with pIND1 control cells is “Neither pon A or Z-VAD had any effect”.
Regarding “TMS1: human TMS1 polypeptide (SEQ ID NO:3) expressed from the TMS1 cDNA in pcDNA3.1”, in the test on Hs578t cells, the “inhibition of colony formation” value was “about 70%”. Further, the NF-κB-dependent transcriptional activation result in the test on NF-κB is listed as “no effect”. Moreover, the “increase in cell death” value in [3] (293 cells, ectopic expression) is recorded as 6 fold. Further, the “apoptosis on ectopic expression” value in [3] is recorded as “induced apoptosis”. For the same compound, in the test with MTMS22 cells [1] (MTMS22 cells, pon A, as early as 16 hours, most evident at 48 hours), the “DNA laddering on induced TMS1 expression” value is given as “DNA laddering was observed”. Also, the “cell growth on induced TMS1 expression” value in the test on MTMS22 cells [2] (MTMS22 cells, pon A, by 48 hours after induction) is given as “cell growth was significantly inhibited”.
Regarding “mycTMS1: TMS1 with a myc-epitope tag fused to amino acid 2”, the “apoptosis on ectopic expression” value in test [3] was “induced apoptosis”.
